pKi: −log10 of the molar value. Like-named read-outs stand apart in the source and are kept apart here.
Columns and labels:
SfruOBP31 [1] = molecular target: T1, SfruOBP31 (Spodoptera frugiperda, UniProt A0A2H1W9W7); assay: fluorescence competitive binding assay with the probe 1-NPN; conditions: for pKi: competing ligand 2–20 µM, 2.0 µM 1-NPN, 2.0 µM protein, Ki < 20 µM recognized as binding; for binding of SfruOBP31 to the ligand (in words): competitive binding with 1-NPN, threshold Ki < 20 µM recognized as binding
Procedure: To investigate the ligand binding ability of SfruOBP31, we used a fluorescence competitive binding assay using the fluorescent probe N-phenyl-1-naphthylamine (1-NPN). Binding experiments were performed on a microplate reader using a Greiner 96 Black Flat Bottom. Among the ligands, we tested five host volatiles from the host plant Zea mays: decanal (97% purity, Shanghai Acmec Biochemical Co., Ltd., Shanghai, China), linalool (98% purity, Shanghai Acmec Biochemical Co., Ltd.), leaf alcohol (98% purity, Shanghai Acmec Biochemical Co., Ltd.), 1-nonanol (98% purity, Shanghai Acmec Biochemical Co., Ltd.), and cis-3-hexenyl acetate (98% purity, Shanghai Acmec Biochemical Co., Ltd.); four pheromones: (Z)-9-tetradecenyl acetate (93% purity, Shenzhen Regent Biochemical Technology Co., Ltd., Shenzhen, China), (Z)-11-hexadecenyl acetate (98% purity, Shanghai Bidd Medical Technology Co., Ltd., Shanghai, China), (Z)-7-dodecenyl acetate (90% purity, Shanghai Bidd Medical Technology Co., Ltd.), and (Z)-9-dodecenyl acetate (90% purity, Shanghai Bidd Medical Technology Co., Ltd.); and five pesticides: emamectin benzoate (90% purity, Energy Chemical), lufenuron (97.4% purity, Shanghai Yuanye Biotechnology Co., Ltd., Shanghai, China), chlorfenapyr (98% purity, Shanghai Yuanye Biotechnology Co., Ltd.), chlorantraniliprole (95% purity, Shanghai Yuanye Biotechnology Co., Ltd.), and lambda-cyhalothrin (96% purity, Guangdong Liwei Chemical Co., Ltd., Maoming, China). All chemicals used for testing and the fluorescent probe 1-NPN were dissolved in GC purify-grade methanol in a 400 µM solution. The 2.0 µM protein solution (in 10 mM HEPES and 100 mM NaCl buffer, pH 7.5) was titrated with 400 µM 1-NPN to a final concentration of 2–20 µM. The binding constant of the protein to 1-NPN was analyzed by assessing the continuous change of fluorescence value. Compounds of 2–20 µM concentration were added to the mixture of 2.0 µM 1-NPN and 2.0 µM protein or 2.0 µM 1-NPN alone to determine the binding rate of the ligands to the protein and the value of the fluorescence. The final fluorescence value was calculated as the fluorescence value after the addition of 1-NPN and protein with the competing ligand minus the fluorescence value after the addition of 1-NPN with the competing ligand only.
(§1) The dissociation constants (K1-NPN) of SfruOBP31 were calculated using Graphpad Prism 8 software. The dissociation constant (Ki) of 1-NPN by competing ligands was calculated with the following formula using IC50 value: Ki = [IC50]/(1 + [1-NPN]/K1-NPN). Here, IC50 is the concentration of competing ligands when the fluorescence intensity reaches half of the initial fluorescence intensity of 1-NPN, and [1-NPN] indicates the concentration of 1-NPN [16]. A threshold of Ki < 20 µM was recognized as binding.

SfruOBP31 [2] = molecular target: T1, SfruOBP31; assay: 1-NPN fluorescence binding (titration of SfruOBP31 with 1-NPN); conditions: binding curve of SfruOBP31 with 1-NPN
Procedure: To investigate the ligand binding ability of SfruOBP31, we used a fluorescence competitive binding assay using the fluorescent probe N-phenyl-1-naphthylamine (1-NPN). Binding experiments were performed on a microplate reader using a Greiner 96 Black Flat Bottom. […] The binding constant of the protein to 1-NPN was analyzed by assessing the continuous change of fluorescence value. Compounds of 2–20 µM concentration were added to the mixture of 2.0 µM 1-NPN and 2.0 µM protein or 2.0 µM 1-NPN alone to determine the binding rate of the ligands to the protein and the value of the fluorescence. The final fluorescence value was calculated as the fluorescence value after the addition of 1-NPN and protein with the competing ligand minus the fluorescence value after the addition of 1-NPN with the competing ligand only.
as §1, with “A threshold of Ki < 20 µM was recognized as binding.” left out

[3] = Ki = [IC50]/(1 + [1-NPN]/K1-NPN)
[4] = Ki = [IC50]/(1 + [1-NPN]/K1-NPN), read-out: Ki

T1 sequence (A0A2H1W9W7 entry or part of it): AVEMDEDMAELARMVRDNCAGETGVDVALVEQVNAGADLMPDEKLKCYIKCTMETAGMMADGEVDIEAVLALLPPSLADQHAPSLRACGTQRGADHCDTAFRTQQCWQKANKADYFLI

Row | Molecule | pKi (SfruOBP31 [1]; [3]) | pKi (SfruOBP31 [1]; [4]) | binding of SfruOBP31 to the ligand (in words) (SfruOBP31 [1]) | also measured
1 | CC1(C)[C@H](C(=O)O[C@H](C#N)c2cccc(Oc3ccccc3)c2)[C@@H]1/C=C(\Cl)C(F)(F)F (racemic) [lambda-cyhalothrin, reference compound] | 5.56 |  |  | 
2 | c1ccc(Nc2cccc3ccccc23)cc1 [1-NPN, N-phenyl-1-naphthylamine] |  |  |  | Bmax (1-NPN, printed in Figure 11A) (SfruOBP31 [2]): 702,842
3 | CCCCCCCCCO [1-nonanol] |  | 4.85 |  | 
4 | CCCC/C=C\CCCCCCCCOC(C)=O [(Z)-9-tetradecenyl acetate] |  | 5.30 | selectively binds | 
5 | CCCC/C=C\CCCCCCCCCCOC(C)=O [(Z)-11-hexadecenyl acetate] |  | 5.27 | selectively binds | 
6 | CNC(=O)c1cc(Cl)cc(C)c1NC(=O)c1cc(Br)nn1-c1ncccc1Cl [chlorantraniliprole, reference compound] | 4.65 |  | lack of binding | 
7 | CCOCn1c(-c2ccc(Cl)cc2)c(C#N)c(Br)c1C(F)(F)F [chlorfenapyr, reference compound] |  |  |  | pKi (SfruOBP31 [1]; read-out: Ki (unit inferred)): 5.09
8 | CC/C=C\CCOC(C)=O [cis-3-hexenyl acetate] |  | 5.20 |  | 
9 | CCCCCCCCCC=O [decanal] |  | 4.71 |  | 
10 | C=CC(C)(O)CCC=C(C)C (centres unmarked) [linalool] | 5.39 |  |  | 
11 | O=C(NC(=O)c1c(F)cccc1F)Nc1cc(Cl)c(OC(F)(F)C(F)C(F)(F)F)cc1Cl (centres unmarked) [lufenuron, reference compound] | 4.43 |  | lack of binding | 
12 | emamectin benzoate [reference compound] |  | 4.56 | lack of binding | 
